# Experimental data taken from patent publication US6653258B1 (priority 1987, dated 2003).
# Legend:
# [1] = tested on: Erysiphe graminis; assay: Foliar fungal disease test on Erysiphe graminis, plants inoculated 24 hours before treatment (Table V); format: in vivo; parameters: key: 4: no disease; 3: trace −5% of disease on untreated plants; 6-25% of disease on untreated plants; 1: 26-59% of disease on untreated plants; 60-100% of disease on untreated plants; details: plants inoculated 24 hours before treatment
# [2] = tested on: foliar fungal diseases of plants; format: in vivo; parameters: key to disease control grading, […] (VINE): 4: no disease; 3: trace −5% of disease on untreated plants; key to disease control grading, PUCCINIA RECONDITA (WHEAT) / disease control grading, VENTURIA INAEQUALIS (APPLE) / disease control grading, CERCOSPORA ARACHIDICOLA (PEANUT) / disease control grading, PH[…] (TOMATO) / disease control grading, P[…] (RICE): 4: no disease; 3: trace −5% of disease on untreated plants; 6-25% of disease on untreated plants; 1: 26-59% of disease on untreated plants; 60-100% of disease on untreated plants; details: applied to soil (roots) and foliage one or two days before inoculation; for disease control grading, P[…] (RICE): P[…] on rice; for disease control grading, PH[…] (TOMATO): Ph[…] on tomato; for disease control grading, PUCCINIA RECONDITA (WHEAT): Puccinia recondita on wheat; for disease control grading, VENTURIA INAEQUALIS (APPLE): Venturia inaequalis on apple; for disease control grading, […] (VINE): […] on vine; for disease control grading, CERCOSPORA ARACHIDICOLA (PEANUT): Cercospora arachidicola on peanut
Structure (SMILES),"disease control grading, ERYSIPHE GRAMINIS (BARLEY) [1]","disease control grading, P[…] (RICE) [2]","disease control grading, PH[…] (TOMATO) [2]","disease control grading, PUCCINIA RECONDITA (WHEAT) [2]","disease control grading, VENTURIA INAEQUALIS (APPLE) [2]","disease control grading, […] (VINE) [2]","disease control grading, CERCOSPORA ARACHIDICOLA (PEANUT) [2]"
CO/C=C(/C(=O)OC)c1ccccc1COc1cccc(Br)n1 [176 (Table I)],4,4,4,4,4,4,
CO/C=C(/C(=O)OC)c1ccccc1COc1cccc(C)c1 [164 (Table I)],4,4,3 (trace −5% of disease on untreated plants),4,4,4,4
CO/C=C(/C(=O)OC)c1ccccc1COc1cccc(Cl)c1Cl [163 (Table I)],4,2 (6-25% of disease on untreated plants),4,4,4,4,4
CO/C=C(/C(=O)OC)c1ccccc1COc1cccc(OCc2ccccc2)c1 [184 (Table I)],4,3 (trace −5% of disease on untreated plants),4,4,4,4,4
CO/C=C(/C(=O)OC)c1ccccc1COc1cccc(C(C)(C)C)c1 [29 (Table I)],2 (6-25% of disease on untreated plants),4,4,4,4,4,4
CO/C=C(/C(=O)OC)c1ccccc1COc1cccc(Oc2ccccc2)n1 [185 (Table I)],4,4,4,4,2 (6-25% of disease on untreated plants),4,4
CO/C=C(/C(=O)OC)c1ccccc1COc1cccc(OC)c1 [160 (Table I)],4,3 (trace −5% of disease on untreated plants),4,4,4,4,3 (trace −5% of disease on untreated plants)
CO/C=C(/C(=O)OC)c1ccccc1COc1ccc(C#N)cc1 [38 (Table I)],4,0 (60-100% of disease on untreated plants),4,4,4,4,4
CCOc1cc(OCc2ccccc2/C(=C\OC)C(=O)OC)ccc1OC [170 (Table I)],4,3 (trace −5% of disease on untreated plants),4,0 (60-100% of disease on untreated plants),4,4,4
CO/C=C(/C(=O)OC)c1ccccc1COc1cccc(-c2cccc(OC)c2)c1 [172 (Table I)],4,0 (60-100% of disease on untreated plants),4,4,4,4,4
CO/C=C(/C(=O)OC)c1ccccc1COc1cccc(CO)c1 [178 (Table I)],0 (60-100% of disease on untreated plants),2 (6-25% of disease on untreated plants),2 (6-25% of disease on untreated plants),3 (trace −5% of disease on untreated plants),0 (60-100% of disease on untreated plants),4,3 (trace −5% of disease on untreated plants)
CO/C=C(/C(=O)OC)c1ccccc1COc1cc(Cl)cc(Cl)c1 [162 (Table I)],4,2 (6-25% of disease on untreated plants),3 (trace −5% of disease on untreated plants),4,4,4,4
CO/C=C(/C(=O)OC)c1ccccc1COc1ccc(Br)cc1 [159 (Table I)],3 (trace −5% of disease on untreated plants),0 (60-100% of disease on untreated plants),3 (trace −5% of disease on untreated plants),4,4,0 (60-100% of disease on untreated plants),4
CO/C=C(/C(=O)OC)c1ccccc1COc1cccc(I)c1 [25 (Table I)],4,2 (6-25% of disease on untreated plants),3 (trace −5% of disease on untreated plants),4,4,4,4
CO/C=C(/C(=O)OC)c1ccccc1COc1cccc(/C=N/c2ccccc2)c1 [179 (Table I)],0 (60-100% of disease on untreated plants),2 (6-25% of disease on untreated plants),4,3 (trace −5% of disease on untreated plants),0 (60-100% of disease on untreated plants),4,0 (60-100% of disease on untreated plants)
CO/C=C(/C(=O)OC)c1ccccc1COc1ccc(F)cc1 [156 (Table I)],4,0 (60-100% of disease on untreated plants),4,4,4,4,4
CO/C=C(/C(=O)OC)c1ccccc1COc1cc(C(F)(F)F)ccn1 [174 (Table I)],4,0 (60-100% of disease on untreated plants),4,4,4,4,4
COC=C(C(=O)OC)c1ccccc1C(C)Sc1ccccc1 (stereo not shown) [2 (Table II)],4,4,4,4,4,4,0 (60-100% of disease on untreated plants)
CCc1ccccc1OCc1ccccc1/C(=C\OC)C(=O)OC [27 (Table I)],4,1 (26-59% of disease on untreated plants),4,4,4,0 (60-100% of disease on untreated plants),4
CO/C=C(/C(=O)OC)c1ccccc1COc1cccc(Oc2ccccc2)c1 [165 (Table I)],4,4,4,4,0 (60-100% of disease on untreated plants),4,0 (60-100% of disease on untreated plants)
